The values below are quoted from earlier work in publication PMC12144996 (Acta Pharmaceutica Sinica. B, 2025).

This series has as its system SARS-CoV-2 variants of concern (VOCs). Particulars: cited from earlier work.

With `CC(C)C(=O)OC[C@H]1O[C@@](C#N)(c2ccc3c(N)ncnn23)[C@H](O)[C@@H]1O` [ATV006], the “Antiviral activity against SARS-CoV-2 variants of concern” value is listed as “potent antiviral activity”.
